From patent US20260365653A1, “IRREVERSIBLE MUTEGFR INHIBITORS” (Bayer Aktiengesellschaft, priority 2022, published 2026)
pIC50: −log10 of the molar value. Values joined by “and” are separate entries in the source; they are usually repeats but may differ in a detail not shown here. Identical values can stand only once.

Legend:
BA/F3 (insSVD) cells = test: Ba/F3-EGFR-insSVD cell survival assay (Cell Titer-Glo); assay type: cell-based
Summary of the method: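 Ba/F3 cells stably expressing retroviral EGFR-insSVD or insSVD T790M, grown without IL-3 on 10 ng/ml EGF, 4000 cells/well. Compound pinned in, 48 h at 37° C. Viability by CellTiter-Glo luminescence.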

[1] = molecular target: T1, mutEGFR (D770_N771insNPG, T790) (Homo sapiens, UniProt P00533, INS770NPG/T790M); test: mutEGFR (D770_N771insNPG, T790) kinase assay; assay type: biochemical
T1 construct: exact insNPG construct not described; in-house EGFR proteins were N-terminal GST fusions from baculovirus/insect cells (borders R669-A1210 given only for WT, insSVD, insASV)
T1 sequence (P00533 with tags, fused parts or gaps INS770NPG/T790M limits assumed): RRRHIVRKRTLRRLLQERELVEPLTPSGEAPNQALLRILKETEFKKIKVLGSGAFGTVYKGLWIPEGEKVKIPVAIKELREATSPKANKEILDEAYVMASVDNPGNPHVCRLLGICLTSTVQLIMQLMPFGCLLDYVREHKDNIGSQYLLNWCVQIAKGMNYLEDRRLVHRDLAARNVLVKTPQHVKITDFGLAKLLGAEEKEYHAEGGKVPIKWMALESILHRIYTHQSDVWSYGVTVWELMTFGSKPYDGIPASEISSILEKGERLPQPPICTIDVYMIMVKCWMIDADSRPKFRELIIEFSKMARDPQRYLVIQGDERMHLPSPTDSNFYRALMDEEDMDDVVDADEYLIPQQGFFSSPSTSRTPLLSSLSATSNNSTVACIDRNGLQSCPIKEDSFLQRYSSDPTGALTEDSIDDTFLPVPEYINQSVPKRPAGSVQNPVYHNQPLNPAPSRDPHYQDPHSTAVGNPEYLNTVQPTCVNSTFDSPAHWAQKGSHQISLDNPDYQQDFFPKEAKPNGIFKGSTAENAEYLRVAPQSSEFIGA
Description: The different EGFR proteins used in the biochemical kinase activity inhibition assays were generated inhouse by expression in insect cells using Baculo Virus system and subsequent purification as described in the following paragraphs.
The cDNAs encoding the various protein sequences from human EGFR human (P00533) were optimized for expression in eukaryotic cells and synthesized by the GeneArt Technology at Life Technologies.

[2] = tested on: BA/F3 (EGFR D770_N771 insSVD T790M) cells; test: Ba/F3-EGFR-insSVD T790M cell survival assay (Cell Titer-Glo); assay type: cell-based; settings: Ba/F3 EGFR-D770-N771ins_SVD, 48 h
Method: Cellular Data Description (WT, insSVD, insSVD T790M) 293T cells from ATCC were transfected with pBABEpuro expression constructs for WT EGFR or EGFR-insSVD, or EGFR-insSVD T790M, and pCL-Eco packaging vector using Fugene-6 transfection reagent from Promega. Plates were incubated at 37° C. for 48 h. Retrovirus was harvested by filtering the media supernatant through a 0.45 μm filter.
Ba/F3 cells purchased from DSMZ were grown in RPMI+10% FBS+10 ng/ml IL-3 and infected with filtered retroviral supernatant at a 1:2 dilution. Polybrene was added to a concentration of 8 μg/mL, plates were spun for 90 min, and incubated for 16 h at 37° C. 2 μg/mL puromycin was added to the infected cells 24 h after infection and cells were continually grown in the presence of puromycin and 10 ng/ml IL-3. Following stably expressing Ba/F3 cell lines were generated: Ba/F3-EGFR-WT, Ba/F3-EGFR-insSVD, Ba/F3-EGFR-insSVD T790M, (Ba/F3-vector-control).
For cell survival assays, Ba/F3 cells were grown to a density of 1-2 million cells per mL, spun down and resuspended in media without IL-3, and replated at a concentration of 200,000-500,000 cells per mL. The cells ectopically expressing WT EGFR, EGFR-insSVD, or EGFR-insSVD T790M were plated with 10 ng/ml Millipore Culture grade EGF. The cells ectopically expressing pBABEpuro empty vector were plated with 10 ng/mL IL-3.
2 days later, cells were plated in 50 µL in a 384 well plate at a concentration of 4000 cells per well for cells assayed in the absence of IL-3 and 2000 cells per well for cells assayed in the presence of IL-3. 100 nL of compound was added to each well using a 100 nL pin head, and plates were incubated at 37° C. for 48 h.
Cell viability was measured by adding 20 μL of Cell Titer-Glo Luminescent Cell Viability Reagent diluted 1:3 in PBS. Plates were sealed with Perkin Elmer Top-Seal, inverted several times to mix, and immediately centrifuged at 1000 rpm for 2 min. Plates were incubated in low light conditions for 8-10 min and luminescence was measured.

[3] = molecular target: T2, mutEGFR (D770_N771insSVD) (Homo sapiens, UniProt P00533, DUP768-770); test: Exon20-Mutant-EGFR (D770_N771insSVD) kinase assay (TR-FRET); assay type: biochemical
T2 construct: GST-EGFR #3 (SVD between D770 and N771); made in house; host or cells: Sf9 insect cells (baculovirus)
T2 sequence (P00533 with tags, fused parts or gaps DUP768-770): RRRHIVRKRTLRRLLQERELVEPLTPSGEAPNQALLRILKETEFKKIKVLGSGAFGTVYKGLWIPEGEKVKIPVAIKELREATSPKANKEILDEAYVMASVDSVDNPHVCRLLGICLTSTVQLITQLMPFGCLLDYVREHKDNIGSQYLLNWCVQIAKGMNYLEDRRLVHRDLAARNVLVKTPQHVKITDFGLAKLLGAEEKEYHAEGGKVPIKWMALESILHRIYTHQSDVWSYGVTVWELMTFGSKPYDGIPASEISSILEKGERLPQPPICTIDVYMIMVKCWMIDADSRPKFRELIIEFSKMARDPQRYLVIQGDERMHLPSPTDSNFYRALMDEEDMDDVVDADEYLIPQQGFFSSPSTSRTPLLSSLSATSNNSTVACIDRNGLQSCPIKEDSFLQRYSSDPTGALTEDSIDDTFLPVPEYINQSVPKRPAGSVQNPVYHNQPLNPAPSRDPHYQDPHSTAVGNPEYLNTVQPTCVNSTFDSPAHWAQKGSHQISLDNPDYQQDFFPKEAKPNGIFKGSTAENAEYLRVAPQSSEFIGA

[4] = Mus musculus, BaF3, 48 h, Table 3a, cell survival, Cell Titer-Glo, with 10 ng/ml EGF, without IL-3
[5] = Table 3a, cell survival, Cell Titer-Glo, with 10 ng/ml EGF, without IL-3
[6] = mutEGFR (D770_N771insSVD) kinase assay IC50, Table 2a, D770_N771insSVD, 2 mM ATP
[7] = Mus musculus, BaF3, 48 h, Table 3b, Ba/F3 EGFR-insSVD
[8] = Table 2b (from US Priority Patent Application), mutEGFR D770_N771insNPG
[9] = Table 3b, Ba/F3 EGFR-insSVD T790M
[10] = mutEGFR (D770_N771insSVD) kinase assay IC50, Table 2b (from US Priority Patent Application), mutEGFR D770_N771insSVD

| SMILES | pIC50 ([1]; Table 2a, D770_N771insNPG) | pIC50 [3, 6] | pIC50 [1, 8] | pIC50 [3, 10] | pIC50 (BA/F3 (insSVD) cells; [4]) | pIC50 [2, 5] | pIC50 (BA/F3 (insSVD) cells; Table 3a, cell survival, Cell Titer-Glo, with 10 ng/ml EGF, without IL-3, 48 h) | pIC50 (BA/F3 (insSVD) cells; [7]) | pIC50 [2, 9] |
| --- | --- | --- | --- | --- | --- | --- | --- | --- | --- |
| C=CC(=O)N1CCn2nc(-c3ccc(F)cc3)c(-c3ccncc3)c2C1 [Example 1, 1-[2-(4-fluorophenyl)-3-(pyridin-4-yl)-6,7-dihydropyrazolo[1,5-a]pyrazin-5(4H)-yl]prop-2-en-1-one] | 9.02 | 9.21 | 9.02 | 9.21 | 7.46 | 6.92 | – | 7.46 | 6.92 |
| C=CC(=O)N1CCn2nc(-c3ccc(Cl)cc3)c(-c3ccncc3)c2C1 [Example 3, 1-[2-(4-chlorophenyl)-3-(pyridin-4-yl)-6,7-dihydropyrazolo[1,5-a]pyrazin-5(4H)-yl]prop-2-en-1-one] | 9.49 | 9.86 | 9.49 | 9.86 | 7.88 | 6.97 | – | 7.88 | 6.97 |
| Cc1c[nH]c2nccc(-c3c(-c4ccc(C(F)(F)F)cc4)nn4c3CN(C(=O)/C=C/CN(C)C)[C@H](C)C4)c12 [Example 266, (2E)-4-(dimethylamino)-1-[(6R)-6-methyl-3-(3-methyl-1H-pyrrolo[2,3-b]pyridin-4-yl)-2-[4-(trifluoromethyl)phenyl]-6,7-dihydropyrazolo[1,5-a]pyrazin-5(4H)-yl]but-2-en-1-one] | 5.45 | 6.34 | – | – | 6.92 | – | – | – | – |
| C=CC(=O)N1Cc2c(-c3ccncc3)c(-c3ccc(Cl)cc3F)nn2C[C@@H]1C [Example 270, 1-[(6S)-2-(4-chloro-2-fluorophenyl)-6-methyl-3-(pyridin-4-yl)-6,7-dihydropyrazolo[1,5-a]pyrazin-5(4H)-yl]prop-2-en-1-one] | 8.99 | 9.67 | – | – | 7.94 | – | – | – | – |
| C=CC(=O)N1CCn2nc(Nc3ccccc3)c(-c3ccncc3)c2C1 [Example 272, 1-[2-anilino-3-(pyridin-4-yl)-6,7-dihydropyrazolo[1,5-a]pyrazin-5(4H)-yl]prop-2-en-1-one] | 7.98 | 8.63 | – | – | 7.06 | – | – | – | – |
| CN(C)C/C=C/C(=O)N1CCn2nc(Nc3ccccc3)c(-c3ccncc3)c2C1 [Example 273, (2E)-1-[2-anilino-3-(pyridin-4-yl)-6,7-dihydropyrazolo[1,5-a]pyrazin-5(4H)-yl]-4-(dimethylamino)but-2-en-1-one] | 7.67 | 8.40 | – | – | 6.27 | – | – | – | – |
| C=CC(=O)N1Cc2c(-c3ccncc3)c(-c3ccc4sccc4c3)nn2C[C@@H]1C [Example 276, 1-[(6S)-2-(1-benzothiophen-5-yl)-6-methyl-3-(pyridin-4-yl)-6,7-dihydropyrazolo[1,5-a]pyrazin-5(4H)-yl]prop-2-en-1-one] | 9.80 | 10.04 | – | – | 8.21 | – | – | – | – |
| C=CC(=O)N1Cc2c(-c3ccnc4[nH]cc(C)c34)c(-c3cccc(C#N)c3)nn2C[C@@H]1C [Example 283, 3-[(6S)-6-methyl-3-(3-methyl-1H-pyrrolo[2,3-b]pyridin-4-yl)-5-(prop-2-enoyl)-4,5,6,7-tetrahydropyrazolo[1,5-a]pyrazin-2-yl]benzonitrile] | 7.52 | 6.60 | – | – | 7.43 | – | – | – | – |
| Cc1c[nH]c2nccc(-c3c(-c4cccc(C#N)c4)nn4c3CN(C(=O)/C=C/CN(C)C)[C@@H](C)C4)c12 [Example 288, 3-[(6S)-5-[(2E)-4-(dimethylamino)but-2-enoyl]-6-methyl-3-(3-methyl-1H-pyrrolo[2,3-b]pyridin-4-yl)-4,5,6,7-tetrahydropyrazolo[1,5-a]pyrazin-2-yl]benzonitrile] | 7.27 | 6.46 | – | – | 6.74 | – | – | – | – |

Continued, in another order:

| pIC50 ([1]; Table 2a, D770_N771insNPG) | pIC50 [3, 6] | pIC50 [1, 8] | pIC50 [3, 10] | SMILES | pIC50 (BA/F3 (insSVD) cells; [4]) | pIC50 [2, 5] | pIC50 (BA/F3 (insSVD) cells; Table 3a, cell survival, Cell Titer-Glo, with 10 ng/ml EGF, without IL-3, 48 h) | pIC50 (BA/F3 (insSVD) cells; [7]) | pIC50 [2, 9] |
| --- | --- | --- | --- | --- | --- | --- | --- | --- | --- |
| 8.85 | 9.39 | – | – | C=CC(=O)N1Cc2c(-c3ccncc3)c(-c3ccc(F)cc3)nn2C(CO)C1 (racemic) [Example 203, 1-[(7RS)-2-(4-fluorophenyl)-7-(hydroxymethyl)-3-(pyridin-4-yl)-6,7-dihydropyrazolo[1,5-a]pyrazin-5(4H)-yl]prop-2-en-1-one] | 7.76 | 6.97 | – | – | – |
| 7.02 | 7.30 | – | – | C=CC(=O)N1C(C)c2c(-c3ccncc3)c(-c3ccc(Cl)cc3F)nn2C[C@@H]1C (single isomer, unassigned; isomer 2) [Example 293] | – | 5.00 | 6.42 | – | – |
| 5.89 | 7.08 | – | – | C=CC(=O)N1Cc2c(-c3ccnc4[nH]cc(C)c34)c(-c3ccc(C(F)(F)F)cc3)nn2C[C@H]1C [Example 260, 1-[(6R)-6-methyl-3-(3-methyl-1H-pyrrolo[2,3-b]pyridin-4-yl)-2-[4-(trifluoromethyl)phenyl]-6,7-dihydropyrazolo[1,5-a]pyrazin-5(4H)-yl]prop-2-en-1-one] | 7.00 | – | – | – | – |
| 7.61 | 6.95 | – | – | C=CC(=O)N1Cc2c(-c3ccnc4[nH]cc(C)c34)c(-c3ccc(F)cc3)nn2C[C@H]1C [Example 263, 1-[(6R)-2-(4-fluorophenyl)-6-methyl-3-(3-methyl-1H-pyrrolo[2,3-b]pyridin-4-yl)-6,7-dihydropyrazolo[1,5-a]pyrazin-5(4H)-yl]prop-2-en-1-one] | 7.09 | – | – | – | – |
| 7.42 | 6.86 | – | – | Cc1c[nH]c2nccc(-c3c(-c4ccc(F)cc4)nn4c3CN(C(=O)/C=C/CN(C)C)[C@H](C)C4)c12 [Example 269, (2E)-4-(dimethylamino)-1-[(6R)-2-(4-fluorophenyl)-6-methyl-3-(3-methyl-1H-pyrrolo[2,3-b]pyridin-4-yl)-6,7-dihydropyrazolo[1,5-a]pyrazin-5(4H)-yl]but-2-en-1-one] | 6.89 | – | – | – | – |
| 9.45 | 9.88 | – | – | C=CC(=O)N1Cc2c(-c3ccncc3)c(-c3ccc(Cl)cc3F)nn2C[C@H]1C [Example 271, 1-[(6R)-2-(4-chloro-2-fluorophenyl)-6-methyl-3-(pyridin-4-yl)-6,7-dihydropyrazolo[1,5-a]pyrazin-5(4H)-yl]prop-2-en-1-one] | 6.65 | – | – | – | – |
| 9.82 | > 10.14 and 10.02 and 9.95 | – | – | C=CC(=O)N1Cc2c(-c3ccncc3)c(-c3ccc4sccc4c3)nn2C[C@H]1C [Example 277, 1-[(6R)-2-(1-benzothiophen-5-yl)-6-methyl-3-(pyridin-4-yl)-6,7-dihydropyrazolo[1,5-a]pyrazin-5(4H)-yl]prop-2-en-1-one] | 8.56 | – | – | – | – |
| 6.76 | 5.86 | – | – | C=CC(=O)N1Cc2c(-c3ccnc4[nH]cc(C)c34)c(-c3cccc(C#N)c3)nn2C[C@H]1C [Example 284, 3-[(6R)-6-methyl-3-(3-methyl-1H-pyrrolo[2,3-b]pyridin-4-yl)-5-(prop-2-enoyl)-4,5,6,7-tetrahydropyrazolo[1,5-a]pyrazin-2-yl]benzonitrile] | 6.28 | – | – | – | – |
| 6.46 | 5.17 | – | – | Cc1c[nH]c2nccc(-c3c(-c4cccc(C#N)c4)nn4c3CN(C(=O)/C=C/CN(C)C)[C@H](C)C4)c12 [Example 289, 3-[(6R)-5-[(2E)-4-(dimethylamino)but-2-enoyl]-6-methyl-3-(3-methyl-1H-pyrrolo[2,3-b]pyridin-4-yl)-4,5,6,7-tetrahydropyrazolo[1,5-a]pyrazin-2-yl]benzonitrile] | 6.04 | – | – | – | – |
